Reference: patent US9427433B2, “Methods and compositions for enhancing fertility and/or inhibiting pregnancy failure and restoring glucose tolerance” (Queen's University at Kingston, priority 2011, dated 2016)

Experiments:
[1] = tested on: female NZO mice fed a continuous high fat diet; assay: Weight loss, comparison of macrolides; assay type: in vivo, mouse; conditions: tacrolimus 0.05 or 0.1 mg/kg, pimecrolimus 0.1 mg/kg, sirolimus 0.1 mg/kg s.c. every other day for three weeks; vs vehicle
Text: (§1) For the comparative evaluation of other macrolide drugs to tacrolimus, mice starting at 7 weeks of age were maintained on the high fat diet for a total of 13 weeks of study period. Mice were entered into the experiments when determined to be glucose intolerant as described above. Methods of drug administration and other experimental methods were as described above.

[2] = tested on: type 2 diabetes NZO mouse model; assay: HOMA-IR, HOMA-B and insulin sensitivity index (Si); assay type: in vivo
Description: (§2) Female mice were administered tacrolimus (0.1 mg/kg or 0.05 mg/kg, n=6/group), vehicle (n=10), pimecrolimus (0.1 mg/kg, n=6) or sirolimus (0.1 mg/kg, n=6) subcutaneously every other day for 3 weeks.
HOMA IR=fasting glucose (mmol/L)×fasting insulin ([…])/22.5 according to the method of Bonora E et al., 2000. Pancreatic β-Cell function (HOMA-B) was calculated according to the method of Tresaco B et al., 2005, HOMA-B=[20×[…]). Insulin sensitivity (Si) was determined according to the method of Matthews D et al., 1985. Si=[basal glucose]−[glucose 15 min]/15).

[3] = tested on: high fat fed female NZO mice; assay: Ovarian histology of macrolide-treated chronically high fat fed NZO mice; assay type: in vivo, mouse; conditions: chronically high fat diet fed NZO mice
Description: Statistical differences between groups were measured by two-way analysis of variance (ANOVA) followed by Bonferroni post-hock t-test comparing effect of all tested macrolides on mean follicular structure counts/unit area at 95% confidence. Scale bars=200 μm for B, D, F, G, H, I, J and 50 μm for A, C, E. N=10 (HFD-NZO), 6 per treatment group. A, C and E are higher magnifications of B, D and F respectively. * denoting ovarian cyst(s).
as §1

[4] = tested on: NZO mice fed a high fat diet; assay: Implantation rate and resorption, comparison of macrolides; assay type: in vivo, mouse; conditions: vs vehicle
Description: as §1
Peri-implantation (E4.5) and post-implantation (E6.5) pregnant and/or pseudopregnant (E4.5bid and E6.5bid) mouse uteri were prepared after mating respectively with fertile and/or vasectomized males as previously described (Herington et al. Endocrinol 2009 150: 4404-4413). The morning of vaginal plug detection was considered as gestational day 0.5 (E0.5 or Gd.0.5). An average number of twenty Concanavalin A(ConA)-coated sepharose beads (average size of 0.1 mm-diameter) (Sigma-Aldrich, Burlington, Ontario, Canada) was injected into the lumen of the left uterine horn of anesthetized animals between hours 13:00 and 16:00 on day 2.5 of pseudopregnancy according to the procedure described by Herington et al. (Endocrinol, 2009 150: 4404-4413). With the use of Ketamine/Xyalzine anesthesia and cardiac puncture, all animals were sacrificed at the age of 16-18 weeks between the morning hours 09:00-11:00. Pregnant and pseudopregnant mice were sacrificed in the morning of days 4.5 and 6.5 of their respective pregnancy. Blood samples were collected from all animals and were let stand for 1 hour at room temperature before isolation of the serum. Serum samples were stored at −80° C. until they were analyzed for their steroid hormones and lipid contents by appropriate laboratory procedures such as radio-immunoassay (RIA) all of which were conducted at the Department of Clinical Chemistry (Kingston General Hospital, Kingston, Ontario, Canada). Ovaries, oviducts and uteri were carefully dissected out of carcasses and were placed in ice-cold phosphate buffered saline (PBS)-containing petri dishes. Under a dissecting microscope, uteri were carefully isolated from their attached uterine tubes, trimmed of all mesenteric fat and were immediately weighed. The numbers of corpora lutea and implantation sites (viable and resorbed) were counted, respectively, from E4.5 and E6.5 pregnant mouse ovaries and uteri. For protein and RNA extraction, virgin uteri and segments of uterine horns containing inter-implantation sites of pregnant and pseudopregnant uteri were transected and snapped frozen in liquid nitrogen.
Examination of external morphological features of uteri of pregnant mice, including counts of implantation sites and photography was performed using a computerized dissecting microscope (Leica Diagnostic Instruments, USA) and the image acquisition and analytic software (SPOT 2.2.0). Percentage of peri-implantation embryo loss was calculated as described by Bindali and Kaliwal (Ind. Health, 2002 40:191-197), using the formula: % Preimplantation loss=[Total number of corpora lutea−Total number of implantation]/Total number of corpora lutea. Immunohistochemical localization and assessment of microscopic morphological features of implantation and inter-implantation sites in normoglycemic and diabetic NOD mice were performed on methacarn (60% methanol, 30% chloroform and 10% acetic acid)-fixed specimens. […]

[5] = tested on: NZO mice fed a high fat diet; assay: Fasting serum glucose, fasting serum insulin and glucose tolerance, comparison of macrolides; assay type: in vivo, mouse
Description: as §2, §1
Glucose Tolerance Test (GTT): was performed according to standard protocol (Ayala et al 2010). Briefly, basal glucose levels were measured for conscious mice individually caged in 1000 cc plastic mouse caging using a one-touch ultra glucose strips and meter (Acqui-check Aviva, Roche, Montreal, Canada) and approximately 30 microliters of blood obtained via tail venipuncture prior to fasting for six hours in cages equipped with hardwood bedding. Fasting blood glucose was recorded at the end of the six hours fasting period. Mice were then tested for oral glucose tolerance (OGTT) or for insulin sensitivity (Si). For OGTT alert mice were then given 20% D-glucose (2 g/kg body weight) sterile syrup administered orally. For Si experiments mice were given 20% D-glucose (2 g/kg body weight) sterile syrup by intraperitoneal administration through a 1 ml D29 gage “½” insulin syringe (Fisher Scientific, Montreal, Canada). Then after, blood glucose was recorded at 15, 30, 45, 60, 90 and 120 minutes respectively. For Si experiments blood glucose was determined only at 15 minutes. Glucose tolerance graphs were generated by blotting mean±standard error of the mean (SEM) of the recorded glucose data per mouse per minute collection time. One way analysis of variance (ANOVA) followed by student t-test was performed to determine alpha values for statistical differences among mean blood glucose values across experimental mice groups.
Fasting immuno-reactive mouse insulin levels were quantitatively determined in citrated platelet-free plasma samples obtained from 6 hours-fasting mice using an Ultrasensitive mouse Insulin Eliza kit (#90080, Crystal chem., IL, USA) according to the manufacturer instructions. Briefly, platelet-free plasma were isolated from freshly obtained citrated whole blood samples of fasting mice and the provided insulin standards were incubated overnight on a shaking platform at 4 C^0 in a 96 wells plate coated with Guinea pig anti-insulin. Afterwards, unbound sample materials were thoroughly washed with the supplied wash buffers and the bound guinea pig anti-insulin/mouse insulin complex immobilized to the microplate wells were incubated with Horseradish peroxidase (HRP)-conjugated anti-insulin antibody for 40 minutes at room temperature with continuous agitation. Excess unbound HRP-conjugated anti-insulin antibodies were then washed excessively with wash buffers and the HRP-mediated color reaction was developed with the addition of 3,3′,5,5′ tetramethylbenzidine (TMB) substrate solution. The amount of insulin (ng/ml) present in the test samples were then measured via interpolation using the standard curve generated by plotting absorbance (at A^0450-A^0635) versus the corresponding concentration of a wide range (0.1-12.8 ng/ml) of mouse insulin standards according to the provider's instructions. Graphic representation of differences in mean±sem of plasma insulin among different groups of mice were blotted using Prism5 (La Jolla, Calif., USA) software and statistically significant differences (at 95% confidence) were calculated for the different test groups of mice using one way ANOVA followed by Bonferroni modified student t-test comparing differences between individual experimental groups.

[6] = 0.1 mg/kg s.c. every other day for 3 weeks, vs vehicle

CC[C@@H]1/C=C(\C)C[C@H](C)C[C@H](OC)[C@H]2O[C@@](O)(C(=O)C(=O)N3CCCC[C@H]3C(=O)O[C@H](/C(C)=C/[C@@H]3CC[C@H](Cl)[C@H](OC)C3)[C@H](C)[C@@H](O)CC1=O)[C@H](C)C[C@@H]2OC [pimecrolimus]
weight loss [1]: induced statistically significant weight loss | insulin resistance (HOMA-IR) ([2]; p<0.001 vs vehicle): significantly reduced insulin resistance | insulin sensitivity (Si) ([2]; p<0.01 vs vehicle): enhanced insulin sensitivity | pancreatic β-cell function (HOMA-B) ([2]; p<0.05 vs vehicle): enhanced pancreatic β-cell function | follicular growth pattern in the ovaries [3]: restored follicular growth pattern | ovarian cyst formation ([3]; p<0.001): inhibited the development of ovarian cysts | ovarian follicular atresia ([3]; vs untreated HFD-NZO): significantly inhibited ovarian follicular atresia (p<0.01) | embryonic and fetal absorption rate ([4]; same treatments, p<0.05): significantly reduced embryonic and fetal absorption rate | implantation rate ([4]; tacrolimus 0.05 and 0.1 mg/kg, pimecrolimus 0.1 mg/kg, sirolimus 0.1 mg/kg s.c. every other day for three weeks): significantly improved implantation rate (p<0.05) | fasting basal serum glucose [5, 6]: maintained low fasting basal serum glucose and insulin levels | fasting basal serum insulin [5, 6]: maintained low fasting basal serum glucose and insulin levels | glucose intolerance ([5]; 0.1 mg/kg, FIG. 17C, p=0.0001): significantly reduced glucose intolerance although to a lesser degree than tacrolimus | insulin secretion in response to a hyperglycemic challenge ([5]; tacrolimus 0.1 or 0.05 mg/kg, pimecrolimus 0.1 mg/kg, sirolimus 0.1 mg/kg s.c. every other day for 3 weeks, vs vehicle): significantly improved insulin secretion
